Results published in article PMC5218480 (PLoS ONE, 2017).

Test system: MV-4-11 cells
Test: Gene expression microarray analysis (Affymetrix PrimeView) and GSEA
Assay type: cell-based, human
Parameters: RFU PODN (11730768_x_at) / Fold change /veh PODN (11730768_x_at) / RFU LINC00158 (11744669_a_at) / Fold change /veh LINC00158 (11744669_a_at) / RFU DUSP10 (11751237_a_at) / Fold change /veh DUSP10 (11751237_a_at) / RFU ID3 (11757404_x_at) / Fold change /veh ID3 (11757404_x_at) / RFU PLEKHG5 (11737974_s_at) / Fold change /veh PLEKHG5 (11737974_s_at) / RFU LRRC4B (11730491_at) / Fold change /veh LRRC4B (11730491_at) / RFU GIMAP4 (11747438_a_at) / Fold change /veh GIMAP4 (11747438_a_at) / RFU KRT8 (11758183_x_at) / Fold change /veh KRT8 (11758183_x_at) / RFU CNN1 (11734310_a_at) / Fold change /veh CNN1 (11734310_a_at) / RFU VPS37D (11726825_at) / Fold change /veh VPS37D (11726825_at) / RFU C10orf10 (11716522_x_at) / Fold change /veh C10orf10 (11716522_x_at) / RFU KIR2DL2 /// KIR2DL4 /// KIR2DL5A /// KIR2DL5B /// KIR2DS1 /// KIR2DS2 /// KIR2DS3 /// KIR2DS4 /// KIR3DL3 /// KIR3DL3 /// KIR3DS1 (11738374_at) / Fold change /veh KIR2DL2 /// KIR2DL4 /// KIR2DL5A /// KIR2DL5B /// KIR2DS1 /// KIR2DS2 /// KIR2DS3 /// KIR2DS4 /// KIR3DL3 /// KIR3DL3 /// KIR3DS1 (11738374_at) / RFU C1QL1 (11718748_at) / Fold change /veh C1QL1 (11718748_at) / RFU TMPRSS4 (11747572_a_at) / Fold change /veh TMPRSS4 (11747572_a_at) / RFU HAMP (11756126_x_at) / Fold change /veh HAMP (11756126_x_at) / RFU RNFT2 (11725882_a_at) / Fold change /veh RNFT2 (11725882_a_at) / RFU NR4A2 (11747474_a_at) / Fold change /veh NR4A2 (11747474_a_at) / RFU ABCC12 (11746883_a_at) / Fold change /veh ABCC12 (11746883_a_at) / RFU TMEM136 (11760407_x_at) / Fold change /veh TMEM136 (11760407_x_at) / RFU CLDN22 /// WWC2 (11732394_at) / Fold change /veh CLDN22 /// WWC2 (11732394_at) / RFU HLA-DPB1 (11760878_x_at) / Fold change /veh HLA-DPB1 (11760878_x_at) / RFU SPINT1 (11716480_a_at) / Fold change /veh SPINT1 (11716480_a_at) / RFU GAP43 (11754022_s_at) / Fold change /veh GAP43 (11754022_s_at) / RFU A4GNT (11735810_at) / Fold change /veh A4GNT (11735810_at) / RFU PRB3 (11715151_x_at) / Fold change /veh PRB3 (11715151_x_at) / RFU TUBB4B (11761932_at) / Fold change /veh TUBB4B (11761932_at) / RFU CAPN14 (11732068_a_at) / Fold change /veh CAPN14 (11732068_a_at) / RFU TMCC2 (11721928_a_at) / Fold change /veh TMCC2 (11721928_a_at) / RFU IRGQ (11745062_a_at) / Fold change /veh IRGQ (11745062_a_at) / RFU FAM174B (11720279_a_at) / Fold change /veh FAM174B (11720279_a_at) / RFU TMPRSS4 (11748680_a_at) / Fold change /veh TMPRSS4 (11748680_a_at) / RFU FAM212B (11763350_a_at) / Fold change /veh FAM212B (11763350_a_at) / RFU PLEKHG5 (11743358_a_at) / Fold change /veh PLEKHG5 (11743358_a_at) / RFU ZSCAN30 (11745921_a_at) / Fold change /veh ZSCAN30 (11745921_a_at) / RFU CMKLR1 (11741424_a_at) / Fold change /veh CMKLR1 (11741424_a_at) / RFU LOC101060620 /// MAPK8IP1 (11723275_at) / Fold change /veh LOC101060620 /// MAPK8IP1 (11723275_at) / RFU SPTSSB (11747773_x_at) / Fold change /veh SPTSSB (11747773_x_at) / RFU PRSS12 (11739890_at) / Fold change /veh PRSS12 (11739890_at) / RFU BIN1 (11741810_x_at) / Fold change /veh BIN1 (11741810_x_at) / RFU WNT11 (11732464_a_at) / Fold change /veh WNT11 (11732464_a_at) / RFU C10orf10 (11716521_a_at) / Fold change /veh C10orf10 (11716521_a_at) / RFU C5orf56 (11738089_at) / Fold change /veh C5orf56 (11738089_at) / RFU CYB561 (11721691_x_at) / Fold change /veh CYB561 (11721691_x_at) / RFU ANKRD19P (11752326_a_at) / Fold change /veh ANKRD19P (11752326_a_at) / RFU OR2T12 /// OR2T33 /// OR2T8 (11738714_s_at) / Fold change /veh OR2T12 /// OR2T33 /// OR2T8 (11738714_s_at) / RFU VCAN (11748164_a_at) / Fold change /veh VCAN (11748164_a_at) / RFU JSRP1 (11732532_at) / Fold change /veh JSRP1 (11732532_at) / RFU KRTAP10-11 (11738290_x_at) / Fold change /veh KRTAP10-11 (11738290_x_at) / RFU MYO3A (11730013_a_at) / Fold change /veh MYO3A (11730013_a_at) / RFU EBF3 (11725865_a_at) / Fold change /veh EBF3 (11725865_a_at) / RFU CAMK2N1 (11719241_x_at) / Fold change /veh CAMK2N1 (11719241_x_at) / RFU C5orf56 (11738088_a_at) / Fold change /veh C5orf56 (11738088_a_at) / RFU OLFML3 (11715873_a_at) / Fold change /veh OLFML3 (11715873_a_at) / RFU LOC100653217 /// NTM (11731650_a_at) / Fold change /veh LOC100653217 /// NTM (11731650_a_at) / RFU MAPK11 (11762145_a_at) / Fold change /veh MAPK11 (11762145_a_at) / RFU FIZ1 (11724087_x_at) / Fold change /veh FIZ1 (11724087_x_at) / RFU OASL (11726364_x_at) / Fold change /veh OASL (11726364_x_at) / RFU SOX15 (11748057_x_at) / Fold change /veh SOX15 (11748057_x_at) / RFU CD79A (11719716_a_at) / Fold change /veh CD79A (11719716_a_at) / RFU HIST1H1D (11736915_at) / Fold change /veh HIST1H1D (11736915_at) / RFU CASKIN2 (11723855_a_at) / Fold change /veh CASKIN2 (11723855_a_at) / RFU LOC730098 (11760151_x_at) / Fold change /veh LOC730098 (11760151_x_at) / RFU OR4N2 (11742367_at) / Fold change /veh OR4N2 (11742367_at) / RFU PRRT2 (11749266_a_at) / Fold change /veh PRRT2 (11749266_a_at) / RFU SNX32 (11753110_a_at) / Fold change /veh SNX32 (11753110_a_at) / RFU CDHR5 (11726645_a_at) / Fold change /veh CDHR5 (11726645_a_at) / RFU RCAN1 (11760418_a_at) / Fold change /veh RCAN1 (11760418_a_at) / RFU FAM167A (11723789_a_at) / Fold change /veh FAM167A (11723789_a_at) / RFU FAM26E (11764081_at) / Fold change /veh FAM26E (11764081_at) / RFU ISYNA1 (11749810_s_at) / Fold change /veh ISYNA1 (11749810_s_at) / RFU ACY1 (11761880_at) / Fold change /veh ACY1 (11761880_at) / RFU 11764098_at / Fold change /veh 11764098_at / RFU SAMD14 (11745864_x_at) / Fold change /veh SAMD14 (11745864_x_at) / RFU NPB (11741838_a_at) / Fold change /veh NPB (11741838_a_at) / RFU TMPRSS6 (11731388_a_at) / Fold change /veh TMPRSS6 (11731388_a_at) / RFU KRTAP10-2 (11738614_at) / Fold change /veh KRTAP10-2 (11738614_at) / RFU ARHGAP8 /// PRR5-ARHGAP8 (11727945_x_at) / Fold change /veh ARHGAP8 /// PRR5-ARHGAP8 (11727945_x_at) / RFU KRTAP5-7 /// NADSYN1 (11734609_at) / Fold change /veh KRTAP5-7 /// NADSYN1 (11734609_at) / RFU RASL12 (11751679_a_at) / Fold change /veh RASL12 (11751679_a_at) / RFU CDKN2B (11736163_a_at) / Fold change /veh CDKN2B (11736163_a_at) / RFU PRF1 (11729649_at) / Fold change /veh PRF1 (11729649_at) / RFU, ZNF638 /// ZNF638-IT1 / Fold change vs veh, ZNF638 /// ZNF638-IT1 / RFU, PANK3 / Fold change vs veh, PANK3 / RFU, SH3YL1 / Fold change vs veh, SH3YL1 / RFU, ZEB2 / Fold change vs veh, ZEB2 / RFU, NRIP1 / Fold change vs veh, NRIP1 / RFU, PTTG1IP / Fold change vs veh, PTTG1IP / RFU, CAPN2 / Fold change vs veh, CAPN2 / RFU, MED14 / Fold change vs veh, MED14 / RFU, SNORA58 / Fold change vs veh, SNORA58 / RFU, C1orf63 / Fold change vs veh, C1orf63 / RFU, LRRFIP1 / Fold change vs veh, LRRFIP1 / RFU, NDUFAF7 / Fold change vs veh, NDUFAF7 / RFU, SLC12A2 / Fold change vs veh, SLC12A2 / RFU, IBTK / Fold change vs veh, IBTK / RFU, ESF1 / Fold change vs veh, ESF1 / Fold change vs veh, TMEM50B / RFU, TAOK1 / Fold change vs veh, TAOK1 / RFU, ACBD3 / Fold change vs veh, ACBD3 / RFU, TMA16 / Fold change vs veh, TMA16 / RFU, RWDD3 / Fold change vs veh, RWDD3 / RFU, BCAT1 / Fold change vs veh, BCAT1 / RFU, EDEM3 / Fold change vs veh, EDEM3 / RFU, TMEM33 / Fold change vs veh, TMEM33 / RFU, WDR75 / Fold change vs veh, WDR75 / RFU, AHCTF1 / Fold change vs veh, AHCTF1 / RFU, TFRC / Fold change vs veh, TFRC / RFU, ZDHHC17 / Fold change vs veh, ZDHHC17 / RFU, NOM1 / Fold change vs veh, NOM1 / RFU, ARL8B / Fold change vs veh, ARL8B / RFU, ZBTB11 / Fold change vs veh, ZBTB11 / RFU, TAMM41 / Fold change vs veh, TAMM41 / RFU, KIAA1704 /// LOC100996395 / Fold change vs veh, KIAA1704 /// LOC100996395 / RFU, ING1 / Fold change vs veh, ING1 / RFU, TRMT61B / Fold change vs veh, TRMT61B / RFU, FUBP3 / Fold change vs veh, FUBP3 / RFU, TP53 / Fold change vs veh, TP53 / RFU, TNKS2 / Fold change vs veh, TNKS2 / RFU, ZFP14 / Fold change vs veh, ZFP14 / RFU, ACTR2 / Fold change vs veh, ACTR2 / RFU, PPP3R1 / Fold change vs veh, PPP3R1 / RFU, PIK3R1 / Fold change vs veh, PIK3R1 / RFU, HNRNPA1 / Fold change vs veh, HNRNPA1 / RFU, RNF170 / Fold change vs veh, RNF170 / RFU, ZNF28 / Fold change vs veh, ZNF28 / RFU, RNGTT / Fold change vs veh, RNGTT / RFU, OGT / Fold change vs veh, OGT / RFU, BRD1 / Fold change vs veh, BRD1 / RFU, MARS / Fold change vs veh, MARS / RFU, ZNF655 / Fold change vs veh, ZNF655 / RFU, FAHD1 / Fold change vs veh, FAHD1 / RFU, BDP1 / Fold change vs veh, BDP1 / RFU, LRRCC1 / Fold change vs veh, LRRCC1 / RFU, ARID1A / Fold change vs veh, ARID1A / RFU, ZNF146 / Fold change vs veh, ZNF146 / RFU, ZNF330 / Fold change vs veh, ZNF330 / RFU, GPN3 / Fold change vs veh, GPN3 / RFU, C9orf123 / Fold change vs veh, C9orf123 / RFU, N4BP2L2 / Fold change vs veh, N4BP2L2 / RFU, ARFIP1 / Fold change vs veh, ARFIP1 / RFU, FAM179B / Fold change vs veh, FAM179B / RFU, BCL10 / Fold change vs veh, BCL10 / RFU, UHRF1BP1L / Fold change vs veh, UHRF1BP1L / RFU, BET1 / Fold change vs veh, BET1 / RFU, CNOT2 / Fold change vs veh, CNOT2 / RFU, ZNF268 / Fold change vs veh, ZNF268 / Fold change vs veh, ZNF507 / RFU, DGCR2 / Fold change vs veh, DGCR2 / RFU, WDSUB1 / Fold change vs veh, WDSUB1 / Fold change vs veh, HSP90B1 /// MIR3652 / RFU, ADSS / Fold change vs veh, ADSS / RFU, GK / Fold change vs veh, GK / RFU, ZNF148 / Fold change vs veh, ZNF148 / RFU, TAF9 / Fold change vs veh, TAF9 / RFU, SLC1A5 / Fold change vs veh, SLC1A5 / RFU, SLMO2 / Fold change vs veh, SLMO2 / RFU, ABCC4 / Fold change vs veh, ABCC4 / RFU, LOC101060439 /// RAP1B / Fold change vs veh, LOC101060439 /// RAP1B / RFU, RFX7 / Fold change vs veh, RFX7 / RFU, GTPBP10 / Fold change vs veh, GTPBP10 / RFU, CNEP1R1 / Fold change vs veh, CNEP1R1 / RFU, BIVM-ERCC5 /// ERCC5 / Fold change vs veh, BIVM-ERCC5 /// ERCC5 / RFU, ILF3 / Fold change vs veh, ILF3 / RFU 11762660_at / Fold change /veh 11762660_at / RFU VCAN (11757783_s_at) / Fold change /veh VCAN (11757783_s_at) / RFU DDX43 (11728927_at) / Fold change /veh DDX43 (11728927_at) / RFU KRT8 (11758188_x_at) / Fold change /veh KRT8 (11758188_x_at) / RFU NKD1 (11759106_at) / Fold change /veh NKD1 (11759106_at) / RFU SRD5A1 (11742802_a_at) / Fold change /veh SRD5A1 (11742802_a_at) / RFU TPSAB1 /// TPSB2 (11721975_s_at) / Fold change /veh TPSAB1 /// TPSB2 (11721975_s_at) / RFU GSTM3 (11746129_a_at) / Fold change /veh GSTM3 (11746129_a_at) / RFU IL23R (11737362_x_at) / Fold change /veh IL23R (11737362_x_at) / RFU TMEM51 (11727254_a_at) / Fold change /veh TMEM51 (11727254_a_at) / RFU PIWIL2 (11732686_x_at) / Fold change /veh PIWIL2 (11732686_x_at) / RFU ORM1 (11744905_x_at) / Fold change /veh ORM1 (11744905_x_at) / RFU CCDC152 (11743942_at) / Fold change /veh CCDC152 (11743942_at) / RFU ECM1 (11717891_a_at) / Fold change /veh ECM1 (11717891_a_at) / RFU IL23R (11748794_a_at) / Fold change /veh IL23R (11748794_a_at) / RFU TNFAIP8L3 (11732012_x_at) / Fold change /veh TNFAIP8L3 (11732012_x_at) / RFU MBOAT4 (11741988_at) / Fold change /veh MBOAT4 (11741988_at) / RFU 11764193_at / Fold change /veh 11764193_at / RFU TMEM53 (11763286_at) / Fold change /veh TMEM53 (11763286_at) / RFU MAGEB2 (11727129_at) / Fold change /veh MAGEB2 (11727129_at) / RFU TMEM200A (11744735_a_at) / Fold change /veh TMEM200A (11744735_a_at) / RFU CCDC152 (11751479_a_at) / Fold change /veh CCDC152 (11751479_a_at) / RFU FAM211A (11726209_a_at) / Fold change /veh FAM211A (11726209_a_at) / RFU RGS16 (11746705_a_at) / Fold change /veh RGS16 (11746705_a_at) / RFU VCAN (11755009_s_at) / Fold change /veh VCAN (11755009_s_at) / RFU RHOB (11743442_s_at) / Fold change /veh RHOB (11743442_s_at) / RFU RGS16 (11720943_a_at) / Fold change /veh RGS16 (11720943_a_at) / RFU RGS16 (11720944_at) / Fold change /veh RGS16 (11720944_at) / RFU, VPS4B / Fold change vs veh, VPS4B / RFU, CREB1 / Fold change vs veh, CREB1 / RFU, DNAJC13 / Fold change vs veh, DNAJC13 / RFU, GNAQ / Fold change vs veh, GNAQ / RFU, CDK5R1 / Fold change vs veh, CDK5R1 / RFU, ZRANB3 / Fold change vs veh, ZRANB3 / RFU, CUL4A / Fold change vs veh, CUL4A / RFU, CCNY / Fold change vs veh, CCNY / RFU, UFL1 / Fold change vs veh, UFL1 / RFU, COG3 / Fold change vs veh, COG3 / RFU, DIAPH2 / Fold change vs veh, DIAPH2 / RFU, SKA2 / Fold change vs veh, SKA2 / RFU, AFF3 / Fold change vs veh, AFF3 / RFU, LMF1 / Fold change vs veh, LMF1 / RFU, IPO11 / Fold change vs veh, IPO11 / RFU, DFFB / Fold change vs veh, DFFB / RFU, FOXP1 / Fold change vs veh, FOXP1 / RFU, CARD8 / Fold change vs veh, CARD8 / RFU, STRN3 / Fold change vs veh, STRN3 / RFU, ADK / Fold change vs veh, ADK / RFU, RASSF2 / Fold change vs veh, RASSF2 / RFU, WIPF1 / Fold change vs veh, WIPF1 / RFU, LARP1B / Fold change vs veh, LARP1B / RFU, RASA1 / Fold change vs veh, RASA1 / RFU, RB1 / Fold change vs veh, RB1 / RFU, PPFIA1 / Fold change vs veh, PPFIA1 / RFU, MAT2A / Fold change vs veh, MAT2A / RFU, CCT5 / Fold change vs veh, CCT5 / RFU, WDR92 / Fold change vs veh, WDR92 / RFU, CUX1 / Fold change vs veh, CUX1 / RFU, TTC7A / Fold change vs veh, TTC7A / RFU, TMEM135 / Fold change vs veh, TMEM135 / RFU, DEPTOR / Fold change vs veh, DEPTOR / RFU, CPM / Fold change vs veh, CPM / RFU, DNAJB6 / Fold change vs veh, DNAJB6 / RFU, CACNA2D3 / Fold change vs veh, CACNA2D3 / RFU, DTX4 / Fold change vs veh, DTX4 / RFU, TFCP2 / Fold change vs veh, TFCP2 / RFU, GMCL1 /// GMCL1P1 / Fold change vs veh, GMCL1 /// GMCL1P1 / RFU, AEBP2 / Fold change vs veh, AEBP2 / RFU, SNHG1 /// SNORD22 /// SNORD25 /// SNORD26 /// SNORD27 /// SNORD28 /// SNORD29 /// SNORD31 / Fold change vs veh, SNHG1 /// SNORD22 /// SNORD25 /// SNORD26 /// SNORD27 /// SNORD28 /// SNORD29 /// SNORD31 / Fold change (Aza/veh), C12orf56 (ProbeSet 11735607_a_at) / Fold change (ACY-1035/veh), C12orf56 (ProbeSet 11735607_a_at) / Fold change (Aza/veh), FGFR1OP (ProbeSet 11751329_s_at) / Fold change (ACY-1035/veh), FGFR1OP (ProbeSet 11751329_s_at) / Fold change (Aza/veh), VPS36 (ProbeSet 11739960_a_at) / Fold change (ACY-1035/veh), VPS36 (ProbeSet 11739960_a_at) / RFU SYPL1 (11715823_x_at) / Fold change /veh SYPL1 (11715823_x_at) / RFU IGFBP7 (11715501_s_at) / Fold change /veh IGFBP7 (11715501_s_at) / RFU REEP3 (11722064_at) / Fold change /veh REEP3 (11722064_at) / RFU IGLL1 (11728026_x_at) / Fold change /veh IGLL1 (11728026_x_at): dose or concentration left out as unconfirmed
Settings: ProbeSet 11753616_s_at; LIST B

Nc1ncn([C@@H]2O[C@H](CO)[C@@H](O)[C@H]2O)c(=O)n1 [azacitidine]
Fold change vs veh, ARL8B: 0.84
